T1: IκB-ζ (mouse, UniProt Q9EST8 1-728, limits assumed)
T1 construct: also called MAIL; INAP
T1 sequence (looked up): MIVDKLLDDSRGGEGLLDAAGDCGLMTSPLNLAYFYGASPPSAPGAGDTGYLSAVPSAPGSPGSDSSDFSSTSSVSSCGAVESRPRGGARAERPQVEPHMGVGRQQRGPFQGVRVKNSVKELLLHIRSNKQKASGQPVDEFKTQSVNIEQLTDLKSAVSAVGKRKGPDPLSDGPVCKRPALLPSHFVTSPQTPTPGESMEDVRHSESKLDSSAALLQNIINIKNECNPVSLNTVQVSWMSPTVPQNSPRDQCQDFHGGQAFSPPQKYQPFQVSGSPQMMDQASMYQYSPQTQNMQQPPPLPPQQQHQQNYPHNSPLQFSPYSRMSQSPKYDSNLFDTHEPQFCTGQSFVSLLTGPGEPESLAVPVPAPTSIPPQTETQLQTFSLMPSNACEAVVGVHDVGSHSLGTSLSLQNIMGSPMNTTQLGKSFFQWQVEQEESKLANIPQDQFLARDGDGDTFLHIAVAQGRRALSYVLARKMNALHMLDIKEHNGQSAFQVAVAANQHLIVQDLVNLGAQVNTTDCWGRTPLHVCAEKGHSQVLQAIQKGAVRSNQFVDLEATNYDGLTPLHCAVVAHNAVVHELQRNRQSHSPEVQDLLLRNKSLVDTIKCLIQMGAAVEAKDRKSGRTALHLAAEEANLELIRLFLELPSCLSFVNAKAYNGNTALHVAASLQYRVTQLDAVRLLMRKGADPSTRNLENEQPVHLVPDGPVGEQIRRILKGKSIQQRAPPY


The molecules below were run on peritoneal macrophages or lung-derived normal cells (assay: Northern blot analysis of IκB-ζ, Bcl-3 and IκB-α expression on TLR/IL-1R stimulation). Conditions: stimulation for 2 hours, FIG. 1a.
Format: cell-based, mouse
Description: Peritoneal macrophages and lung primary cells were stimulated with 100 ng ml^−1 BLP, 10 μg ml^−1 PGN, 30 ng ml^−1 MALP-2, 100 nM R-848, 3 μM CpG DNA, 10 ng ml^−1 IL-1β, 10 μg ml^−1 LPS, 100 ng ml^−1 flagellin, and 10 ng ml^−1 TNF-α for 2 hours. Total RNA (10 μg) was extracted and subjected to Northern blot analysis for investigating the expression of IκB-ζ, Bcl-3, IκB-α, and β-actin. b. MEFs from wild-type and MyD88-deficient mice were stimulated with 10 ng ml^−1 IL-1β and 10 μg ml^−1 LPS for the indicated periods. Total RNA (10 μg) was extracted and subjected to Northern blot analysis for investigating the expression of IκB-ζ, Cox-2, IP-10, and β-actin.
Whether IκB-ζ would be induced in response to other TLR ligands was examined based on the fact that stimulation with IL-1 or LPS induces IκB-ζ in macrophage cell lines and fibroblasts, and that IL-1R and the receptor for LPS, TLR4, share the intracellular signaling pathways. […] On the other hand, other IκB family members, IκB-α and Bcl-3, were induced in response to TNF-αas well as a TLR ligand and IL-1. Taken together, unlike IκB-α and Bcl-3, the IκB-ζ induction is specifically detected on the TLR/IL-1R stimulation.

Row | Molecule | Bcl-3 induction | IκB-α induction | IκB-ζ mRNA induction
1 | IL-1: Interleukin-1; recombinant IL-1β obtained from Genzyme | induced | induced | strongly induced
2 | TNF-α | induced | induced | no induction was observed
3 | flagellin |  |  | strongly induced
4 | MALP-2 |  |  | strongly induced
5 | peptidoglycan [PGN] |  |  | strongly induced
6 | CCOCc1nc2c(N)nc3ccccc3c2n1CC(C)(C)O [R848] |  |  | strongly induced

Each molecule was assayed against T1, IκB-ζ (assay: co-immunoprecipitation from peritoneal macrophage lysates, immunoblot with α-IκB-ζ). Conditions: not given.
From the text: RAW 264.7 cells were transiently transfected with luciferase reporter constructs of either mouse IL-6 promoter or ELAM1 promoter together with either a control or the IκB-ζ expression plasmid. Luciferase activities were expressed as fold-increase over the background shown by lysates prepared from untransfected cells. Data are representative of three separate experiments. In all three experiments, cells were stimulated with the indicated concentrations of LPS. b. A certain amount of IκB-ζ expression vector was transiently introduced into untreated RAW 264.7 cells with the indicated amount of IL-6 reporter plasmid. Data are representative of three independent experiments. c. Reporter constructs of either a wild-type or mutant IL-6 promoter were transiently introduced into P19 embryonic canrinoma cells together with either a control or an IκB-ζ expression plasmid. Luciferase activities were normalized in each case of reporter constructs by dividing the increase rate of IκB-ζ-expressed cells over the background shown by lysates by that of mock-expressed cells. d. Chromatin from untreated (−) or LPS-treated (+) (1 μg ml⁻¹ for 3 hours) RAW 264.7 cells were used for ChIp with the indicated antibodies. Precipitated DNA for the IL-6 κB site (left), 3′ region of IL-6 gene (center), or ELAM1 promoter (right) was measured by PCR (ChIP). Data are representative of two independent experiments. e. Unstimulated or LPS-stimulated (10 ng ml⁻¹) peritoneal macrophages were immunoprecepitated with the indicated antibodies. The immunoprecipitated lysates were subsequently immunoblotted with α-IκB-ζ.
Peritoneal macrophages and MEFs were stimulated with the indicated ligands for the indicated periods. The cells were then lysed in a lysis buffer containing 1.0% Nonidet-P40, 150 mM NaCl, 20 mM Tris-Cl (pH 7.5), 5 mM EDTA and protein inhibitor (Roche). The cell lysates were dissolved by SDS-PAGE and transferred on a PVDF membrances. For immunoprecipitation, cell lysates were precleared with Protein G-Sepharose™ (Amersham Pharmacia Biotech) for 2 h and then incubated with Protein G-Sepharose™ containing 1.0 μg of the indicated antibodies for 12 h with stirring at 4° C. The immunoprecipitants were washed four times with lysis buffer, eluted by boiling with Laemnli sample buffer, and subjected to Western blotting using α-IκB-ζ, as described above.

Row | Molecule | binding result
7 | RelB (other, mouse, UniProt Q04863 1-558, looked up) MPSRRAARESAPELGALGSSDLSSLSLTVSRTTDELEIIDEYIKENGFGLDGTQLSEMPRLVPRGPASLSSVTLGPAAPPPPATPSWSCTLGRLVSPGPCPRPYLVITEQPKQRGMRFRYECEGRSAGSILGESSTEASKTLPAIELRDCGGLREVEVTACLVWKDWPHRVHPHSLVGKDCTDGVCRVRLRPHVSPRHSFNNLGIQCVRKKEIEAAIERKIQLGIDPYNAGSLKNHQEVDMNVVRICFQASYRDQQGHLHRMDPILSEPVYDKKSTNTSELRICRINKESGPCTGGEELYLLCDKVQKEDISVVFSTASWEGRADFSQADVHRQIAIVFKTPPYEDLEISEPVTVNVFLQRLTDGVCSEPLPFTYLPRDHDSYGVDKKRKRGLPDVLGELSSSDPHGIESKRRKKKPVFLDHFLPGHSSGLFLPPSALQPADSDFFPASISLPGLEPPGGPDLLDDGFAYDPSAPTLFTMLDLLPPAPPLASAVVGSGGAGATVVESSGPEPLSLDSFAAPGPGDVGTASLVGSNMFPNQYREAAFGGGLLSPGPEAT | no binding
8 | c-Rel (other, mouse, UniProt P15307 2-587, looked up, Immunoprecipitated with anti-c-Rel (Santa Cruz)) ASSGYNPYVEIIEQPRQRGMRFRYKCEGRSAGSIPGERSTDNNRTYPSVQIMNYYGKGKIRITLVTKNDPYKPHPHDLVGKDCRDGYYEAEFGPERRPLFFQNLGIRCVKKKEVKGAIILRISAGINPFNVGEQQLLDIEDCDLNVVRCVFMFFLPDEDGNFTTALPPIVSNPIYDNRAPNTAELRICRVNKNCGSVRGGDEIFLLCDKVQKDDIEVRFVLNDWEARGVFSQADVHRQVAIVFKTPPYCKAILEPVTVKMQLRRPSDQEVSESMDFRYLPDEKDAYGNKSKKQKTTLIFQKLLQDCGHFTEKPRTAPLGSTGEGRFIKKESNLFSHGTVLPEMPRSSGVPGQAEPYYSSCGSISSGLPHHPPAIPSVAHQPTSWPPVTHPTSHPVSTNTLSTFSAGTLSSNSQGILPFLEGPGVSDLSASNSCLYNPDDLARMETPSMSPTDLYSISDVNMLSTRPLSVMAPSTDGMGDTDNPRLVSINLENPSCNARLGPRDLRQLHQMSPASLSAGTSSSSVFVSQSDAFDRSNFSCVDNGLMNEPGLSDDANNPTFVQSSHYSVNTLQSEQLSDPFTYGFFKI | no binding
9 | p52 subunit (other, mouse, UniProt Q9WTK5 1-454, looked up) MDNCYDPGLDGIPEYDDFEFSPSIVEPKDPAPETADGPYLVIVEQPKQRGFRFRYGCEGPSHGGLPGASSEKGRKTYPTVKICNYEGPAKIEVDLVTHSDPPRAHAHSLVGKQCSELGVCAVSVGPKDMTAQFNNLGVLHVTKKNMMEIMIQKLQRQRLRSKPQGLTEAERRELEQEAKELKKVMDLSIVRLRFSAFLRASDGSFSLPLKPVISQPIHDSKSPGASNLKISRMDKTAGSVRGGDEVYLLCDKVQKDDIEVRFYEDDENGWQAFGDFSPTDVHKQYAIVFRTPPYHKMKIERPVTVFLQLKRKRGGDVSDSKQFTYYPLVEDKEEVQRKRRKALPTFSQPFGGGSHMGGGSGGSAGGYGGAGGGGSLGFFSSSLAYNPYQSGAAPMGCYPGGGGGAQMAGSRRDTDAGEGAEEPRTPPEAPQGEPQALDTLQRAREYNARLFGLA | no binding
10 | RelA (other, mouse, UniProt Q04207 1-549, looked up, Immunoprecipitated with anti-RelA (Santa Cruz); also called NF-κB RelA) MDDLFPLIFPSEPAQASGPYVEIIEQPKQRGMRFRYKCEGRSAGSIPGERSTDTTKTHPTIKINGYTGPGTVRISLVTKDPPHRPHPHELVGKDCRDGYYEADLCPDRSIHSFQNLGIQCVKKRDLEQAISQRIQTNNNPFHVPIEEQRGDYDLNAVRLCFQVTVRDPAGRPLLLTPVLSHPIFDNRAPNTAELKICRVNRNSGSCLGGDEIFLLCDKVQKEDIEVYFTGPGWEARGSFSQADVHRQVAIVFRTPPYADPSLQAPVRVSMQLRRPSDRELSEPMEFQYLPDTDDRHRIEEKRKRTYETFKSIMKKSPFNGPTEPRPPTRRIAVPTRNSTSVPKPAPQPYTFPASLSTINFDEFSPMLLPSGQISNQALALAPSSAPVLAQTMVPSSAMVPLAQPPAPAPVLTPGPPQSLSAPVPKSTQAGEGTLSEALLHLQFDADEDLGALLGNSTDPGVFTDLASVDNSEFQQLLNQGVSMSHSTAEPMLMEYPEAITRLVTGSQRPPDPAPTPLGTSGLPNGLSGDEDFSSIADMDFSALLSQISS | no binding

Reference: patent US20090158447A1, “TLR ligand and IL-1 Response-Injured Animal Model” (priority 2004, published 2009)
